From article PMC5854708, “Grass Carp Prolactin Gene: Structural Characterization and Signal Transduction for PACAP-induced Prolactin Promoter Activity” (Scientific Reports, 2018)
Like-named read-outs stand apart in the source and are kept apart here.

How the values were obtained:
[1] = test system: grass carp PRL promoter (pPRL(−1156).Luc) in αT3-1 cells; type: cell-based, grass carp (promoter); rat (αT3-1 cells, as printed); conditions: for effect on Forskolin-induced luciferase activity: Forskolin 100 nM
Protocol: The cells were then cultured for 18 hr recovery before drug treatment. (A) Time course analysis on the effect of oPACAP38 (6–48 hrs) on grass carp PRL promoter activity in αT3-1 cells. (B) αT3-1 cells over-expressed pPRL(−1156).LUC were treated for 24 hrs with increasing doses of oPACAP38. Effects of PACAP and VIP antagonists on PACAP-induced PRL mRNA expression were also investigated. In these experiments, αT3-1 cells over-expressed pPRL(−1156).LUC were challenged with oPACAP38 (10 nM, 24 hr) in the presence or absence of (C) the PACAP antagonist PACAP6-38 (10 nM) or (D) VIP antagonist (4-Cl-D-Phe6, Leu17)VIP (“VIP-R antagonist”, 100 nM).
After 18 h recovery, the cells were incubated with respective drugs. (A) αT3-1 cells over-expressed pPRL(−1156).LUC were treated for 24 hrs with increasing doses of cpt-cAMP (1–100 μM). (B) αT3-1 cells over-expressed pPRL(−1156).LUC were treated for 24 hrs with increasing doses of Forskolin (10–1000 nM). Effects of cAMP/PKA inhibitors on PACAP-induced PRL mRNA expression were then investigated. αT3-1 cells over-expressed pPRL(−1156).LUC were challenged with oPACAP38 (10 nM, 24 hr) in the presence or absence of (C) AC inhibitor MDL12330A (10 μM) or (D) PKA blocker H89 (10 μM).
After 18 h recovery, the cells were incubated with respective drugs. The cells were treated for 24 hr with increasing doses of (A) Ca^2+ ionophore A23187 or (B) L-type VSCC activator Bay K8644. Inhibiting extracellular Ca^2+ entry on PRL mRNA expression in carp pituitary cells was examined. In this study, αT3-1 cells over-expressed pPRL(−1156).LUC were treated with (C) oPACAP38 (10 nM, 24 hrs) or (D) Forskolin (100 nM, 24 hrs) in the Ca^2+-free medium (with different doses of EGTA).
After 18 h recovery, the cells were incubated with respective drugs.

PRL promoter = test system: PRL promoter; parameters: method as in 2 sources, one per row (each row's own in cited_ref): ref 2 = [2]; PMID 15731170; doi:10.1210/me.2004-0111; 2. Liu, J. C., Baker, R. E., Chow, W., Sun, C. K. & Elsholtz, H. P. Epigenetic mechanisms in the dopamine D2 receptor-dependent inhibition of the prolactin gene. Mol Endocrinol 19 , 1904–1917, doi:10. ||| ref 3 = [3]; PMID 1922085; doi:10.1210/mend-5-4-535; 3. Yan GZ Pan WT Bancroft C Thyrotropin-releasing hormone action on the prolactin promoter is mediated by the POU protein pit-1 Mol Endocrinol 1991 5 535 541 10.1210/mend-5-4-535 1922085; conditions: mammals, cited from earlier work
Description: (§1) Prolactin (PRL) is a pituitary hormone with diverse function. […] In mammals, transcription of PRL gene is regulated by multiple factors. […] Furthermore, sex steroid ...

[2] = test system: PRL promoter / PRL transcript; parameters: method as in PMID 17904137; conditions: goldfish; cited from earlier work
Description: as §1

PRL gene transcription = test system: PRL gene transcription; parameters: method as in PMID 18006630, PMID 18022314; conditions: human; cited from earlier work
Description: as §1

[3] = test system: PRL gene expression in GH4C1 cells; conditions: cited from earlier work
Description: (§2) PACAP and vasoactive intestinal peptide (VIP) are members of the glucagon/secretin peptide family and have been reported to play roles in PRL regulation. […] In contrast to VIP, the biological actions of PACAP on ...

[4] = test system: PRL secretion / PRL gene expression; conditions: mammals, cited from earlier work
Description: as §2

PAC1 receptors = conditions: cited from earlier work
Description: as §2

[5] = 24-hr, A23187 1–100 nM or Bay K8644 1–100 nM, n = 4
[6] = 24 hr, MDL12330A 10 μM or H89 10 μM, n = 4
[7] = oPACAP38 10 nM, 24 hr, MDL12330A 10 μM or H89 10 μM, n = 4
[8] = calmidazolium 1 μM or KN62 5 μM, oPACAP38 10 nM, 24 hrs, n = 4
[9] = calmidazolium 1 μM, W7 30 μM, W13 100 μM or KN62 5 μM, n = 4
[10] = LY294002 10 μM or Wortmannin 10 nM, n = 4
[11] = U0126, PD169316 or SP600125, each 10 μM, n = 4
[12] = U0126, PD169316 or SP600125, each 10 μM, oPACAP38 10 nM, 24 hrs, n = 4
[13] = W7 30 μM or W13 100 μM, pre-treated 15 mins, PACAP 100 nM (Supplementary Fig. 4), 24 hours, n = 4

NCCOB(c1ccccc1)c1ccccc1 [2-APB, 2-aminoethoxydiphenyl borate]
effect on PACAP-stimulated luciferase activity [1]: effectively abolished

CNc1ccc2oc(C[C@H]3O[C@@]4(CC[C@H]3C)O[C@H]([C@H](C)C(=O)c3ccc[nH]3)[C@H](C)C[C@H]4C)nc2c1C(=O)O [A23187]
effect on luciferase activity expression [1, 5]: effective in stimulating luciferase activity expression

COC(=O)C1=C(C)NC(C)=C([N+](=O)[O-])C1c1ccccc1C(F)(F)F (centres unmarked) [Bay K8644]
effect on luciferase activity expression [1, 5]: effective in stimulating luciferase activity expression

NCCc1ccc(O)c(O)c1 [Dopamine]
effect on PRL promoter activity (PRL promoter; via dopamine D2 receptor activation): inhibitory effect on PRL promoter activity
effect on PRL promoter activity [2]: inhibition of PRL promoter activity

O=C(O)CN(CCOCCOCCN(CC(=O)O)CC(=O)O)CC(=O)O [EGTA]
effect on Forskolin-induced luciferase activity ([1]; EGTA 1–4 mM, Ca^2+-free medium, 24 hrs, n = 4): suppressed dose-dependently
effect on PACAP-induced luciferase activity ([1]; EGTA 1–4 mM, Ca^2+-free medium, oPACAP38 10 nM, 24 hrs, n = 4): suppressed dose-dependently

CCCCCCCCCCCCCCCCCCOCC(COP(=O)([O-])OCC[N+](C)(C)C)OC (centres unmarked) [Edelfosine]
effect on PACAP-stimulated luciferase activity ([1]; Edelfosine 20 μM or 2-APB 100 μM, oPACAP38 10 nM, 24 hrs, n = 4): effectively abolished

C=C[C@@]1(C)CC(=O)[C@]2(O)[C@@]3(C)[C@@H](O)CCC(C)(C)[C@@H]3[C@H](O)[C@H](OC(C)=O)[C@@]2(C)O1 [Forskolin]
effect on luciferase activity expression ([1]; 24 hrs, Forskolin 10–1000 nM, n = 4): dose-dependently increased

CN(C)CCCn1cc(C2=C(c3c[nH]c4ccccc34)C(=O)NC2=O)c2ccccc21 [GF109203]
effect on PACAP-induced luciferase activity ([1]; GF109203 1 μM, oPACAP38 10 nM, 24 hrs, n = 4): not effective in altering PACAP induction

O=S(=O)(NCCNC/C=C/c1ccc(Br)cc1)c1cccc2cnccc12 [H89]
effect on basal luciferase activity [1, 6]: markedly suppressed
effect on oPACAP38-induced luciferase activity [1, 7]: totally abolished

CN([C@@H](Cc1ccc(OS(=O)(=O)c2cccc3cnccc23)cc1)C(=O)N1CCN(c2ccccc2)CC1)S(=O)(=O)c1cccc2cnccc12 [KN62]
effect on PACAP-stimulated luciferase activity [1, 8]: suppressed/totally inhibited
effect on basal luciferase activity [1, 9]: suppressed/totally inhibited

O=c1cc(N2CCOCC2)oc2c(-c3ccccc3)cccc12 [LY294002]
effect on basal luciferase activity [1, 10]: effective in reducing
effect on PACAP-induced luciferase activity ([1]; LY294002 10 μM, pre-treated 15 mins, PACAP 100 nM (Supplementary Fig. 4), 24 hours, n = 4): effective in reducing

Cl.c1ccc(C2CCCC2NC2=NCCCCCCCCCCC2)cc1 (centres unmarked) [MDL12330A]
effect on basal luciferase activity [1, 6]: markedly suppressed
effect on oPACAP38-induced luciferase activity [1, 7]: totally abolished

Oc1c2ccccc2c2c3c(cccc13)N=N2 [SP600125]
effect on basal luciferase activity [1, 11]: not affected
effect on PACAP-induced luciferase activity [1, 12]: not affected

N#CC(=C(/N)Sc1ccccc1N)/C(C#N)=C(/N)Sc1ccccc1N [U0126]
effect on basal luciferase activity [1, 11]: not affected
effect on PACAP-induced luciferase activity [1, 12]: not affected

COc1ccc2c(c1)CC[C@@H]1[C@@H]2CC[C@]2(C)[C@@H](NCCCCCCN3C(=O)C=CC3=O)CC[C@@H]12 [U73122]
effect on PACAP-stimulated luciferase activity ([1]; U73122 10 μM, pre-treated 15 mins, PACAP 100 nM (Supplementary Fig. 4), 24 hours, n = 4): effectively abolished

NCCCCCCNS(=O)(=O)c1cccc2c(Cl)cccc12 [W7]
effect on PACAP-stimulated luciferase activity [1, 13]: suppressed/totally inhibited
effect on basal luciferase activity [1, 9]: suppressed/totally inhibited

NCCCCNS(=O)(=O)c1ccc2c(Cl)cccc2c1 [W13]
effect on PACAP-stimulated luciferase activity [1, 13]: suppressed/totally inhibited
effect on basal luciferase activity [1, 9]: suppressed/totally inhibited

COC[C@H]1OC(=O)c2coc3c2[C@@]1(C)C1=C(C3=O)[C@@H]2CCC(=O)[C@@]2(C)C[C@H]1OC(C)=O [Wortmanin]
effect on basal luciferase activity [1, 10]: effective in reducing
effect on PACAP-induced luciferase activity ([1]; Wortmannin 10 nM, oPACAP38 10 nM, 24 hrs, n = 4): effective in reducing

Clc1ccc(C(c2ccc(Cl)cc2)n2cc[n+](CC(OCc3ccc(Cl)cc3Cl)c3ccc(Cl)cc3Cl)c2)cc1 (centres unmarked) [calmidazolium]
effect on PACAP-stimulated luciferase activity [1, 8]: suppressed/totally inhibited
effect on basal luciferase activity [1, 9]: suppressed/totally inhibited

Nc1ncnc2c1nc(Sc1ccc(Cl)cc1)n2C1OC2COP(=O)(O)OC2C1O (centres unmarked) [cpt-cAMP, 8-(4-chlorophenylthio)-cAMP]
effect on luciferase activity expression ([1]; 24 hrs, cpt-cAMP 1–100 μM, n = 4): dose-dependently increased

COC(=O)C1=C(C)NC(C)=C(C(=O)OC)C1c1ccccc1[N+](=O)[O-] [nifedipine]
effect on Forskolin-induced luciferase activity ([1]; nifedipine 10 μM, 24 hrs, n = 4): effective in attenuating
effect on PACAP-induced luciferase activity ([1]; nifedipine 10 μM, oPACAP38 10 nM, 24 hrs, n = 4): effective in attenuating

CO[C@H]1C[C@@H]2CC[C@@H](C)[C@@](O)(O2)C(=O)C(=O)N2CCCC[C@H]2C(=O)O[C@H]([C@H](C)C[C@@H]2CC[C@@H](O)[C@H](OC)C2)CC(=O)[C@H](C)/C=C(\C)[C@@H](O)[C@@H](OC)C(=O)[C@H](C)C[C@H](C)/C=C/C=C/C=C/1C [rapamycin]
effect on PACAP-induced luciferase activity ([1]; rapamycin 20 nM, oPACAP38 10 nM, 24 hrs, n = 4): attenuated

PACAP6–38
effect on oPACAP38-induced PRL promoter activity ([1]; oPACAP38 10 nM, 24 hr, antagonist PACAP6–38 100 nM (text; legend: 10 nM), n = 4): blocked

estrogen
effect on PRL gene transcription (PRL gene transcription): potent stimulator for PRL gene transcription

thyrotropin-releasing hormone [TRH]
effect on PRL promoter (PRL promoter; via pit-1 transactivation): stimulate PRL promoter
effect on PRL promoter activity [2]: suppressed
effect on PRL transcript expression [2]: suppressed

vasoactive intestinal peptide [VIP]
effect on PRL gene expression [3]: stimulatory effects
effect on PRL secretion ([4]; ref 8): stimulatory effects
effect on PRL gene expression ([4]; ref 9): stimulatory effects
affinity/specificity at PAC1 receptors (PAC1 receptors): little/very low affinity
